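How tested: cells in 96-well plates exposed to compound for 48 hours at five concentrations. Here, GI50 denotes the concentration required for 50% inhibition of growth. TGI marks complete inhibition of growth.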
Assays:
Assay in all cases: NCI anticancer screen, dose series, 48 h
[1] = system: 786-0 renal
[2] = system: HL-60(TB) leukemia
[3] = system: SF-295 CNS
[4] = system: OVCAR-8 ovarian
[5] = system: M14 melanoma
[6] = system: NCI-H522 lung
[7] = system: SK-MEL-2 melanoma
[8] = system: HOP-62 NSCLC
[9] = system: SF-539 CNS
[10] = system: RXF 393 renal
[11] = system: A549 NSCLC
[12] = system: SNB-75 CNS
[13] = system: SK-MEL-5 melanoma
[14] = system: LOX IMVI melanoma
[15] = system: MOLT-4 leukemia
[16] = system: COLO 205 colon
[17] = system: SK-OV-3 ovarian
[18] = system: MALME-3M melanoma
[19] = system: KM12 colon
[20] = system: SW-620 colon
[21] = system: KM20L2 colon
[22] = system: CAKI-1 renal
[23] = system: OVCAR-4 ovarian
[24] = system: SF-268 CNS
[25] = system: SK-MEL-28 melanoma
[26] = system: A498 renal
[27] = system: ACHN renal
[28] = system: UACC-257 melanoma
[29] = system: UO-31 renal
[30] = system: NCI-H460 lung
[31] = system: OVCAR-3 ovarian
[32] = system: NCI-H226 lung
[33] = system: HCC-2998 colon
[34] = system: EKVX NSCLC
[35] = system: SR leukemia
[36] = system: TK-10 renal
[37] = system: IGROV1 ovarian
[38] = system: HCT-116 colon
[39] = system: SN12C renal
[40] = system: UACC-62 melanoma
[41] = system: OVCAR-5 ovarian
[42] = system: HCT-15 colon
[43] = system: HOP-92 NSCLC
[44] = system: RPMI-8226 leukemia
[45] = system: NCI-H23 lung
[46] = system: U251 CNS
[47] = system: HT29 colon

CC[O-].CC[O-].O=C([CH-]C(=O)c1ccccc1)c1ccccc1.O=C([CH-]C(=O)c1ccccc1)c1ccccc1.[Ti+4]
GI50 [1]: > 100 µM | TGI [1]: > 100 µM | GI50 [2]: 25.3 µM | TGI [2]: > 100 µM | GI50 [3]: > 100 µM | TGI [3]: > 100 µM | GI50 [4]: 79.4 µM | TGI [4]: > 100 µM | GI50 [5]: > 100 µM | TGI [5]: > 100 µM | GI50 [6]: > 100 µM | TGI [6]: > 100 µM | GI50 [7]: > 100 µM | TGI [7]: > 100 µM | GI50 [8]: > 100 µM | TGI [8]: > 100 µM | GI50 [9]: 19.8 µM | TGI [9]: > 100 µM | GI50 [10]: 39.1 µM | TGI [10]: > 100 µM | GI50 [11]: > 100 µM | TGI [11]: > 100 µM | GI50 [12]: 61.6 µM | TGI [12]: > 100 µM | GI50 [13]: > 100 µM | TGI [13]: > 100 µM | GI50 [14]: > 100 µM | TGI [14]: > 100 µM | GI50 [15]: 46.5 µM | TGI [15]: > 100 µM | GI50 [16]: > 100 µM | TGI [16]: > 100 µM | GI50 [17]: > 100 µM | TGI [17]: > 100 µM | GI50 [18]: > 100 µM | TGI [18]: > 100 µM | GI50 [19]: > 100 µM | TGI [19]: > 100 µM | GI50 [20]: > 100 µM | TGI [20]: > 100 µM | GI50 [21]: > 100 µM | TGI [21]: > 100 µM | GI50 [22]: > 100 µM | TGI [22]: > 100 µM | GI50 [23]: > 100 µM | TGI [23]: > 100 µM | GI50 [24]: > 100 µM | TGI [24]: > 100 µM | GI50 [25]: > 100 µM | TGI [25]: > 100 µM | GI50 [26]: > 100 µM | TGI [26]: > 100 µM | GI50 [27]: > 100 µM | TGI [27]: > 100 µM | GI50 [28]: > 100 µM | TGI [28]: > 100 µM | GI50 [29]: > 100 µM | TGI [29]: > 100 µM | GI50 [30]: 44.3 µM | TGI [30]: > 100 µM | GI50 [31]: > 100 µM | TGI [31]: > 100 µM | GI50 [32]: 25.2 µM | TGI [32]: > 100 µM | GI50 [33]: > 100 µM | TGI [33]: > 100 µM | GI50 [34]: > 100 µM | TGI [34]: > 100 µM | GI50 [35]: 62.4 µM | TGI [35]: > 100 µM | GI50 [36]: > 100 µM | TGI [36]: > 100 µM | GI50 [37]: > 100 µM | TGI [37]: > 100 µM | GI50 [38]: > 100 µM | TGI [38]: > 100 µM | GI50 [39]: > 100 µM | TGI [39]: > 100 µM | GI50 [40]: > 100 µM | TGI [40]: > 100 µM | GI50 [41]: > 100 µM | TGI [41]: > 100 µM | GI50 [42]: > 100 µM | TGI [42]: > 100 µM | GI50 [43]: 44.3 µM | TGI [43]: > 100 µM | GI50 [44]: 45.4 µM | TGI [44]: > 100 µM | GI50 [45]: > 100 µM | TGI [45]: > 100 µM | GI50 [46]: 57.2 µM | TGI [46]: > 100 µM | GI50 [47]: > 100 µM | TGI [47]: > 100 µM

From PubChem BioAssay (NCI)
